Source: the METLIN SMRT retention time set (Domingo-Almenara et al. 2019)

Experiment: gradient 5% acetonitrile 3 min, to 50% in 2 min, to 85% in 15 min, held 3 min, 100 µL/min
Conditions: column: Zorbax Extend-C18 2.1 x 50 mm; eluents: water / acetonitrile, 0.1% formic acid
Method in brief: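 Standards, all pure, were combined into mixtures of ~100 molecules and run at 100 μL/min on a Zorbax Extend-C18 column (2.1 × 50 mm, 1.8 μm) with water and acetonitrile, each containing 0.1% formic acid. A coupled quadrupole time-of-flight mass spectrometer operated in positive and negative ionization mode. Retention time values come from computationally picked adduct peaks, each inspected manually.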

| Structure (SMILES) | RP-LC retention time [s] |
| --- | --- |
| CN(C)c1ccc(CCCNC(=O)Cc2ccc(Cl)cc2)cc1 | 604 |
| COC(=O)c1c(C)[nH]c(C(=O)N2CCCC(C(=O)NCc3ccc(OC)cc3OC)C2)c1C (centres undefined) | 755 |
| O=C(Cc1csc2nc(-c3ccccc3)cn12)Nc1cccc(Br)c1 | 906 |
| CC(C)Oc1ccc(CN2C(=O)C3(CCOCC3)CC2c2nnnn2C(C)(C)C)cc1 (centres undefined) | 875 |
| Nc1ncc2c(n1)CC(c1ccco1)CC2=O (centres undefined) | 676 |
| CCc1ccc(NC(=O)N2CCN(Cc3ccc4nccnc4c3)CC2)cc1 | 626 |
| O=c1c2cc(-c3ccc(F)cc3)nn2cnn1Cc1nc(-c2ccc(Br)cc2)no1 | 1210 |
| O=C(c1cc(-c2ccccc2)n[nH]1)N1CCN(c2ccc(N3CCOCC3)nn2)CC1 | 595 |
| Cc1ccc(C(=O)N2CCCn3cc(-c4ccccc4F)nc32)cn1 | 627 |
| Cc1ccc(CNC(=O)c2ccc3cnn(Cc4ccc(F)cc4)c3c2)o1 | 916 |
| COCCn1cc2c3c(cccc31)CN(C(=O)Nc1cc(F)ccc1F)CC2 | 938 |
| Cc1nc2cc(N3CC(C(=O)Nc4ccc(C)c(Cl)c4)CC3=O)ccc2o1 (centres undefined) | 819 |
| O=C(Nc1nccnc1C(=O)NCCCN1CCOCC1)c1ccccc1 | 551 |
| COc1ccccc1N1CCN(C(=O)c2cn(-c3ccc(NC(C)=O)cn3)cn2)CC1 | 646 |
| CNC(=O)c1cn2ccnc(-c3ccc(OC)cc3)c2n1 | 711 |
| O=C(Nc1nnc(SCc2c(F)cccc2Cl)s1)c1cc(C2CC2)on1 | 1010 |
| CCCNC(=O)c1cn(-c2cc(-c3nc(C4CC4)no3)ccn2)cn1 | 818 |
| Cc1ccc(C(=O)N2CCCCC2c2nc(-c3cccnc3)no2)cn1 (centres undefined) | 641 |
| CCCn1c(C)cnc1C1CN(S(=O)(=O)c2ccc(F)c(F)c2)C1 | 695 |
| O=C(NCc1cccnc1)c1cc2cc(Cl)ccc2[nH]1 | 632 |
| Cc1cc(C)cc(S(=O)(=O)N2CCC(C(=O)NCc3csc(-c4cccs4)n3)CC2)c1 | 967 |
| Clc1ccc(-c2ccnc3nc(-c4ccccc4)nn23)cc1 | 971 |
| COc1cc(OC)c(NC(=O)Nc2ccc3nc(N4CCN(C)CC4)cc(C)c3c2)cc1Cl | 614 |

| Structure (SMILES) | RP-LC retention time [s] |
| --- | --- |
| Fc1ccc(C(c2nnc(-c3ccccc3)o2)N2CCN(c3ccccn3)CC2)c(Cl)c1 (centres undefined) | 978 |
| Cc1cccc(OCc2nc(-c3ccc4nnn(C)c4c3)no2)c1 | 985 |
| CC(C)c1ccc(C(=O)N2CCc3c(c(-c4nc(C5CC5)no4)nn3C)C2)cc1 | 971 |
| O=C(Nc1ccc(F)cc1F)Nc1c(-c2ccccc2)nc2ccccn12 | 660 |
| CCOC(=O)C1CCN(C(=O)CN2C(=O)COc3ccc(C(=O)N(CC)CC)cc32)CC1 | 700 |
| CC(C)(C)NC(=O)N1CCN(c2cc(-c3cccc(F)c3)ncn2)CC1 | 669 |
| Cc1ccc(NC(=O)C2CCN(S(=O)(=O)c3ccc4c(c3)CCCC(=O)N4)CC2)c(C)c1 | 774 |
| CN1C(=O)C2CCCCN2c2ccc(C(=O)NCCc3cccs3)cc21 (centres undefined) | 872 |
| COc1ccc(NC(=O)c2cccn(C)c2=O)cc1N1CCCC1=O | 618 |
| CCn1cc(CCNS(=O)(=O)c2ccccc2F)c2cccnc21 | 745 |
| O=C1CCCc2cc(S(=O)(=O)NCCN3CCN(c4ccccc4F)CC3)ccc2N1 | 621 |
| CC1=CC(=O)CC(C)(C)C1(O)/C=C/C(C)=C\C(=O)O (centres undefined) | 683 |
| COC(=O)c1ccccc1NC(=O)NCCc1c(C)nn(C)c1C | 629 |
| Cc1cc(C)cc(NS(=O)(=O)c2cc(-c3[nH]ncc3C(=O)N3CCOCC3)oc2C)c1 | 731 |
| O=c1oc2cc(O)ccc2cc1-c1cc(F)cc(F)c1 | 908 |
| Fc1ccccc1-c1ccc(CNCc2ccco2)o1 | 659 |
| O=C(NCc1ccc(Cl)cc1)c1ccc(NC(=O)C2CCC2)cc1N1CCOCC1 | 896 |
| Cc1ccc2cc(CCC(=O)N3CCCN(c4ncccn4)CC3)c(=O)[nH]c2c1 | 676 |
| Cc1noc(CNC(=O)C2CCN(C(=O)Cc3cn(C)c4ccccc34)CC2)n1 | 656 |
| COc1cc(CCc2cc(NC(=O)c3ccc(N4C[C@@H](C)N[C@@H](C)C4)cc3)n[nH]2)cc(OC)c1 | 687 |
| CCOc1ccc(S(=O)(=O)N2CCN(c3cc(C)nc(NC4CCCCC4)n3)CC2)cc1 | 839 |
| O=C(Nc1c(F)cccc1F)N1CCc2[nH]cnc2C1c1ccccn1 (centres undefined) | 582 |
| Cc1nc(-c2cnccn2)n(CC(=O)Nc2cccc(C#N)c2)c(=O)c1C | 711 |

| Structure (SMILES) | RP-LC retention time [s] |
| --- | --- |
| CCOc1ccc(-c2cn3ccn(-c4ccc(OCC)cc4)c(=O)c3n2)cc1 | 896 |
| Cc1nnc(N2CCCC(C(=O)N3CCc4ccccc43)C2)c2nn(-c3ccc(Cl)cc3)c(C)c12 (centres undefined) | 850 |
| O=C(CCn1c(N2CCCC2)nc2ccsc2c1=O)Nc1cccc(Cl)c1 | 892 |
| Cc1nc(OCC(=O)Nc2ccc(Cl)cc2F)c2ccccc2n1 | 789 |
| CC1CCC[C@H](O)CCCCCc2cc(O)cc(O)c2C(=O)O1 (some centres undefined) | 862 |
| CC(=O)Nc1cccc(-c2nc(-c3ccc4oc(-c5ccccc5)nc4c3)no2)c1 | 769 |
| CCOc1ccc(-c2nc(-c3ccc4c(c3)oc(=O)n4C(C)C)no2)cc1OCC | 1260 |
| COc1ccc(OC)c(NC(=O)CCc2c(C)nn(-c3cc(N4CCCC4)ncn3)c2C)c1 | 827 |
| CCC(Oc1ccc(=O)n(-c2ccc(F)cc2)n1)C(=O)NCc1ccco1 (centres undefined) | 733 |
| CC(C)Cn1cc(S(=O)(=O)N2CCN(c3ccccc3Cl)CC2)c2cccnc21 | 1220 |
| COc1ccccc1NC(=O)N1CCC2(CC1)NC(=O)c1cccc(Cl)c1N2 | 754 |
| Cc1cccc(S(=O)(=O)N2C[C@H]3CN(S(=O)(=O)c4ccc(C#N)cc4)C[C@@H](C2)O3)c1 | 945 |
| CC(CCc1ccccc1)NC(=O)Cc1nnc(-c2ccncc2)o1 (centres undefined) | 744 |
| CCN(C(=O)CN1C(=O)CCCc2cc(S(=O)(=O)N3CCCCC3)ccc21)c1ccc(OC)cc1 | 961 |
| Cc1ccc(-c2cn3c(CC(=O)N4CCc5ccccc5C4)csc3n2)cc1C | 879 |
| CN(CC1CCOCC1)C(=O)Cc1ccccc1 | 695 |
| CCc1ccc(N2CC(c3noc(-c4ccc(OC)cc4)n3)CC2=O)cc1 (centres undefined) | 1080 |
| CCOC(=O)c1c(C)n(C)c2ccc(OCC(O)CN3CCCCC3)cc12 (centres undefined) | 643 |
| CCc1nc(-c2cc(S(=O)(=O)N3CCC(C(=O)NC4CCCCCC4)CC3)c(C)s2)no1 | 1070 |
| Cc1ccc(-c2noc(Cn3ccnc3C)n2)cc1 | 629 |
| CCOC(=O)N1CCN(Cc2c(O)ccc3ccccc23)CC1 | 691 |
| COc1cccc(N2CCN(S(=O)(=O)c3cc(-c4nc(C(C)C)cs4)cs3)CC2)c1 | 1310 |
| Cc1cc(Cl)ccc1NC(=O)Cn1ccc2sccc2c1=O | 764 |

| Structure (SMILES) | RP-LC retention time [s] |
| --- | --- |
| CC1CCN(c2nc3c(c(=O)n(C)c(=O)n3C)n2Cc2ccccc2F)CC1 | 1090 |
| COC(=O)c1ccccc1NC(=O)Cn1ccn2nc(-c3ccccc3)c(CO)c2c1=O | 884 |
| Cc1csc(COc2ccc(C(=O)Nc3ccc4cn[nH]c4c3)cc2)n1 | 711 |
| Cc1cc(C(F)F)n2nc(C(=O)Nc3ccc(C(C)C)cc3)nc2n1 | 952 |
| CCOCCCNC(=O)C1Cn2cccc2C(=O)N1C (centres undefined) | 597 |
| CC(C)CN1CCn2cc(S(=O)(=O)Nc3ccccc3F)cc2C1=O | 1320 |
| Cc1ccc(S(=O)(=O)NCCc2cn(CC(C)C)c3ncccc23)cc1Cl | 1070 |
| COc1ccc(NC(=O)C2CCN(S(=O)(=O)c3ccc4c(c3)NC(=O)C(C)O4)CC2)cc1Cl (centres undefined) | 853 |
| Cc1noc(-c2ccc(OC3CN(C(=O)Nc4cccc(F)c4)C3)cc2)n1 | 838 |
| CCc1nc2cc(-c3noc(Cc4c(F)cccc4Cl)n3)ccc2o1 | 1150 |
| O=c1ccc(N2CCC(NS(=O)(=O)c3cccc(F)c3)C2)nn1CC1CC1 (centres undefined) | 773 |
| Cn1nc(C(=O)N2CCCC(C(=O)NC3CC3)C2)c2c1CCN(C(=O)c1ccco1)C2 (centres undefined) | 594 |
| CCn1cc(CN2CCC(C(=O)NCc3ccccc3C)CC2)c2cc(OC)ccc21 | 707 |
| O=C(CCC1CCCN(S(=O)(=O)c2ccccc2F)C1)NCCc1ccccc1 (centres undefined) | 952 |
| Cc1nc(-c2ccc(C(=O)N3CCOCC3)cc2)no1 | 635 |
| O=C(C1=CN(c2ccc(F)c(F)c2)c2cc(Cl)ccc2S1(=O)=O)N1CCOCC1 | 775 |
| O=C1COc2cc(S(=O)(=O)N3CCCC3C(=O)N3CCc4ccccc43)c(Cl)cc2N1 (centres undefined) | 795 |
| O=C(NCc1ccco1)c1cc(N2C(=O)CCS2(=O)=O)ccc1Cl | 675 |
| O=C(CN1C(=O)CCc2cc(S(=O)(=O)N3CCCCC3)ccc21)NC1CCCc2ccccc21 (centres undefined) | 935 |
| CC(C)Cn1nc2ccc(S(=O)(=O)N3CCOCC3)cn2c1=O | 732 |
